As usually defined, the IC50 is the concentration that inhibits the measured activity by half.

For the experiment, the target named is T1, recombinant human GST-Syk (Homo sapiens, UniProt P43405).
T1 construct: purchased Carna Biosciences 08-176
The experiment is described as follows: Homogeneous Time-Resolved Fluorescence (HTRF) assay for the recombinant human Syk enzyme. Format: biochemical. The settings on record: recombinant human GST-Syk 5 pM, ATP 25 μM, 10-dose titration 10 μM to 0.508 nM; read-out: rhSYK Activity IC50. The method in brief:
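Detection used time-resolved fluorescence 30 min after adding a quench mix (40 mM EDTA, 15 mM Tris pH 7.5, 0.01% Tween 20) containing 2 nM Europium anti-pTyr antibody and 70 nM streptavidin-APC. This followed 45 min of room-temperature peptide phosphorylation by recombinant GST-tagged human Syk.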
For orientation: In TR-FRET formats the signal depends on donor and acceptor labels being close together.
With `Cc1cc(Nc2cc(C(F)(F)F)ccn2)nc(-c2cn(C3CCC(C(N)=O)C(C)(C)C3)nn2)c1` (single isomer, unassigned) [Example 1.6, 2,2-dimethyl-4-[4-(4-methyl-6-{[4-(trifluoromethyl)pyridin-2-yl]amino}pyridin-2-yl)-1H-1,2,3-triazol-1-yl]cyclohexanecarboxamide], the IC50 came to 26.6 nM.
The same measure for `Cc1cc(Nc2cc(C(F)(F)F)ccn2)nc(-c2cn(CC(O)C(O)COc3ccccc3Cl)nn2)c1` (centres unmarked) [Example 10.8, 1-(2-chlorophenoxy)-4-[4-(4-methyl-6-{[4-(trifluoromethyl)pyridin-2-yl]amino}pyridin-2-yl)-1H-1,2,3-triazol-1-yl]butane-2,3-diol]: 63.3 nM; for `COc1nc(Nc2cc(C)cc(-c3cn(CC(C)(O)C(C)(C)O)nn3)c2)ncc1Cl` (centres unmarked) [Example 21.27, 1-(4-{3-[(5-chloro-4-methoxypyrimidin-2-yl)amino]-5-methylphenyl}-1H-1,2,3-triazol-1-yl)-2,3-dimethylbutane-2,3-diol]: 41.5 nM; for `Cc1cc(Nc2cc(C(F)(F)F)ccn2)nc(-c2cn([C@H](C)C(=O)N3CCC[C@H]3C(=O)O)nn2)c1` [Example 3.12, 1-{(2R)-2-[4-(4-methyl-6-{[4-(trifluoromethyl)pyridin-2-yl]amino}pyridin-2-yl)-1H-1,2,3-triazol-1-yl]propanoyl}proline]: 105 nM.
The same measure for `Cc1cc(Nc2nccc(C(F)F)n2)cc(-c2cn(C3CCCC(C)(O)C3O)nn2)c1` (single isomer, unassigned) [Example 29.1, 3-(4-(3-((4-(Difluoromethyl)pyrimidin-2-yl)amino)-5-methylphenyl)-1H-1,2,3-triazol-1-yl)-1-methylcyclohexane-1,2-diol]: 19.7 nM; for `Cc1cc(Nc2cc(C(F)(F)F)ccn2)nc(-c2cn(C3CCC(C(=O)O)C(C)(C)C3)nn2)c1` (single isomer, unassigned) [Example 9.1, (R or S) 2,2-Dimethyl-4-[4-(4-methyl-6-{[4-(trifluoromethyl)pyridin-2-yl]amino}pyridin-2-yl)-1 H-1,2,3-triazol-1-yl]cyclohexanecarboxylic acid]: 3.7 nM.
The same measure for `Cc1cc(Nc2cc(C(F)(F)F)ccn2)nc(-c2cn(CC(O)Cn3cccn3)nn2)c1` (centres unmarked) [Example 4.28, 1-[4-(4-methyl-6-{[4-(trifluoromethyl)pyridin-2-yl]amino}pyridin-2-yl)-1H-1,2,3-triazol-1-yl]-3-(1H-pyrazol-1-yl)propan-2-ol]: 6.6 nM; for `Cc1cc(Nc2cc(C(F)(F)F)ccn2)nc(-c2cn(C(C)c3ccc(C(N)=O)cc3)nn2)c1` (centres unmarked) [Example 1.16, 4-{1-[4-(4-methyl-6-{[4-(trifluoromethyl)pyridin-2-yl]amino}pyridin-2-yl)-1H-1,2,3-triazol-1-yl]ethyl}benzamide]: 13.3 nM.
Consider `Cc1cc(Nc2cc(C(F)(F)F)ccn2)nc(-c2cn([C@H](C)C(N)=O)nn2)c1` [Example 1.23, (2R)-2-[4-(4-methyl-6-{[4-(trifluoromethyl)pyridin-2-yl]amino}pyridin-2-yl)-1H-1,2,3-triazol-1-yl]propanamide], for which the IC50 came to 6.8 nM.
Then `Cc1cc(Nc2cc(C(F)(F)F)ccn2)nc(-c2cn(C(C)C(=O)N3CCN(Cc4ccccc4)C(c4ccccc4)C3)nn2)c1` (centres unmarked) [Example 1.50, 6-{1-[2-(4-benzyl-3-phenylpiperazin-1-yl)-1-methyl-2-oxoethyl]-1H-1,2,3-triazol-4-yl}-4-methyl-N-[4-(trifluoromethyl)pyridin-2-yl]pyridin-2-amine], with 570 nM; and `Cc1cc(Nc2cc(C(F)(F)F)ccn2)nc(-c2cn(CC(O)C(C)(C)C)nn2)c1` (centres unmarked) [Example 4.25, 3,3-dimethyl-1-[4-(4-methyl-6-{[4-(trifluoromethyl)pyridin-2-yl]amino}pyridin-2-yl)-1H-1,2,3-triazol-1-yl]butan-2-ol], with 12.1 nM; and `Cc1cc(Nc2cc(C(F)(F)F)ccn2)nc(-c2cn(C(C(=O)O)c3ccc(F)cc3)nn2)c1` (centres unmarked) [Example 3.10, (4-fluorophenyl)[4-(4-methyl-6-{[4-(trifluoromethyl)pyridin-2-yl]amino}pyridin-2-yl)-1H-1,2,3-triazol-1-yl]acetic acid], with 3.9 nM.
The same measure for `Cc1cc(Nc2nccc(C(F)F)n2)cc(-c2cn(CC3(O)CNC(=O)C3)nn2)c1` (single isomer, unassigned) [Example 31.1, 4-((4-(3-((4-(Difluoromethyl)pyrimidin-2-yl)amino)-5-methylphenyl)-1H-1,2,3-triazol-1-yl)methyl)-4-hydroxypyrrolidin-2-one]: 7.3 nM.
The same measure for `Cc1cc(Nc2nccc(C(F)(F)F)n2)cc(-c2cn(C3CS(=O)(=O)CC3O)nn2)c1` (centres unmarked) [Example 5.63, 4-[4-(3-methyl-5-{[4-(trifluoromethyl)pyrimidin-2-yl]amino}phenyl)-1H-1,2,3-triazol-1-yl]tetrahydrothiophene-3-ol 1,1-dioxide]: 24.1 nM; for `Cc1cc(Nc2cc(C(F)(F)F)ccn2)nc(-c2cn(C3CNCC3O)nn2)c1` (racemic) [Example 19.1, (+/−)-(3S,4R)-4-(4-(4-Methyl-6-((4-(trifluoromethyl)pyridin-2-yl)amino)pyridin-2-yl)-1H-1,2,3-triazol-1-yl)pyrrolidin-3-ol]: 32.3 nM.
In the case of `Cc1cc(Nc2cc(C3CCC3)ccn2)nc(-c2cn(C(C)c3ccc(C(=O)O)cc3)nn2)c1` (centres unmarked) [Example 2.10, 4-[1-(4-{6-[(4-cyclobutylpyridin-2-yl)amino]-4-methylpyridin-2-yl}-1H-1,2,3-triazol-1-yl)ethyl]benzoic acid], the IC50 came to 3.7 nM.
The same measure for `Cc1cc(Nc2cc(C(C)O)ccn2)nc(-c2cn(C(C)c3ccc(C(=O)O)cc3)nn2)c1` (centres unmarked) [Example 2.3, 4-{1-[4-(6-{[4-(1-hydroxyethyl)pyridin-2-yl]amino}-4-methylpyridin-2-yl)-1H-1,2,3-triazol-1-yl]ethyl}benzoic acid]: 21.1 nM.
Then `Cc1cc(Nc2nccc(C(F)(F)F)n2)cc(-n2cc(CCC(=O)O)nn2)c1` [Example 15.14, 3-[1-(3-methyl-5-{[4-(trifluoromethyl)pyrimidin-2-yl]amino}phenyl)-1H-1,2,3-triazol-4-yl]propanoic acid], with 79.6 nM.
The same measure for `CCC(CO)n1cc(-c2cc(C)cc(Nc3cc(C(F)(F)F)ccn3)n2)nn1` (centres unmarked) [Example 13.9, 2-[4-(4-methyl-6-{[4-(trifluoromethyl)pyridin-2-yl]amino}pyridin-2-yl)-1H-1,2,3-triazol-1-yl]butan-1-ol]: 2.9 nM.
On to `Cc1cc(Nc2nccc(C(F)(F)F)n2)cc(-c2cn(CC(=O)N3COCC3(C)C)nn2)c1` [Example 5.68, N-(3-{1-[2-(4,4-dimethyl-1,3-oxazolidin-3-yl)-2-oxoethyl]-1H-1,2,3-triazol-4-yl}-5-methylphenyl)-4-(trifluoromethyl)pyrimidin-2-amine], for which the IC50 worked out at 114 nM.
The same measure for `Cc1cc(Nc2nccc(C(F)(F)F)n2)cc(-c2nc[nH]n2)c1` [Example 2.14, N-[3-methyl-5-(1H-1,2,4-triazol-3-yl)phenyl]-4-(trifluoromethyl)pyrimidin-2-amine]: 281 nM.
The same measure for `Cc1cc(Nc2nccc(C)n2)cc(-c2cn(C3CCCCC3(C)O)nn2)c1` (single isomer, unassigned) [Example 7.27, 1-methyl-2-(4-{3-methyl-5-[(4-methylpyrimidin-2-yl)amino]phenyl}-1H-1,2,3-triazol-1-yl)cyclohexanol]: 90.4 nM; for `Cc1cc(Nc2cc(C(F)(F)F)ccn2)nc(-c2cn(Cc3cc[nH]n3)nn2)c1` [Example 5.111, 4-methyl-6-[1-(1H-pyrazol-3-ylmethyl)-1H-1,2,3-triazol-4-yl]-N-[4-(trifluoromethyl)pyridin-2-yl]pyridin-2-amine]: 2.2 nM.
Then `Cc1cc(Nc2cc(C(F)(F)F)ccn2)nc(-c2cn(CC(O)C(C)C)nn2)c1` (centres unmarked) [Example 4.24, 3-methyl-1-[4-(4-methyl-6-{[4-(trifluoromethyl)pyridin-2-yl]amino}pyridin-2-yl)-1H-1,2,3-triazol-1-yl]butan-2-ol], with 8.3 nM.
For `Cc1cc(Nc2cc(C(F)(F)F)ccn2)nc(-c2cn(CC(O)C(F)(F)F)nn2)c1` (racemic) [Example 5.83, 1,1,1-trifluoro-3-[4-(4-methyl-6-{[4-(trifluoromethyl)pyridin-2-yl]amino}pyridin-2-yl)-1H-1,2,3-triazol-1-yl]propan-2-ol], the IC50 worked out at 4.4 nM.
Regarding `Cc1cc(Nc2cc(C(F)F)ccn2)nc(-c2cn(CC3OC(=O)NC3C)nn2)c1` (single isomer, unassigned) [Example 7.44, 5-{[4-(6-{[4-(difluoromethyl)pyridin-2-yl]amino}-4-methylpyridin-2-yl)-1H-1,2,3-triazol-1-yl]methyl}-4-methyl-1,3-oxazolidin-2-one], the IC50 is 18 nM.
The same measure for `Cc1cc(Nc2nccc(C(F)(F)F)n2)cc(-n2cc([C@@]3(O)CC[C@H](C(=O)O)C(C)(C)C3)nn2)c1` [Example 15.9, (1S,4R)-4-hydroxy-2,2-dimethyl-4-[1-(3-methyl-5-{[4-(trifluoromethyl)pyrimidin-2-yl]amino}phenyl)-1H-1,2,3-triazol-4-yl]cyclohexanecarboxylic acid]: 8.1 nM; for `Cc1cc(Nc2cc(C(F)(F)F)ccn2)nc(-c2cn(CC3=CCCCC3)nn2)c1` [Example 9.6, 6-[1-(cyclohex-1-en-1-ylmethyl)-1H-1,2,3-triazol-4-yl]-4-methyl-N-[4-(trifluoromethyl)pyridin-2-yl]pyridin-2-amine]: 78.8 nM; for `Cc1cc(Nc2nccc(C(F)(F)F)n2)cc(-c2cn(CCCN3CCOCC3)nn2)c1` [Example 5.51, N-{3-mcthyl-5-[1-(3-morpholin-4-ylpropyl)-1H-1,2,3-triazol-4-yl]phenyl}-4-(trifluoromethyl)pyrimidin-2-amine]: 177 nM.

Source of the values: patent US9586931B2 (Merck Sharp & Dohme Corp., priority 2012, dated 2017).
